The values below come from patent US8816085B2 (Takeda GmbH, priority 2009, dated 2014).

The target of this experiment is T1, PDE5A1 (human PDE5 from platelets) (Homo sapiens, UniProt O76074).
T1 construct: from tissue; host or cells: platelets from fresh blood of human donors (10,000 g supernatant of sonified platelets)
The experiment can be described thus: Inhibition of type 5 phosphodiesterase (PDE5) activity, modified SPA test. It counts as biochemical. The following applies: PDE5-containing human platelet lysate, 0.5 μM cGMP, value classes, read-out: PDE5A1 inhibitory values [measured as −logIC50 (mol/l)] (converted). An outline of the steps: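 Enzyme source: human platelet lysate (10,000 g supernatant), with 1 μM motapizone and 10 nM PDE2 inhibitor present. SPA format in 20 mM Tris pH 7.4, 5 mM Mg2+, 0.5 μM cGMP with [3H]cGMP tracer; 5 min preincubation at 37 °C, 15 min reaction, stopped with IBMX-containing beads. IC50 by non-linear regression.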

Each structure is given as a SMILES string.

As to `Cc1[nH]c2c(-c3c(OCC4CC4)ccc4c3OCO4)ccnc2c1C(=O)N[C@H]1CC[C@@H](NC(=O)CO)CC1` [Example F04, 7-[5-(Cyclopropylmethoxy)-1,3-benzodioxol-4-yl]-N-[cis-4-(glycoloylamino)cyclohexyl]-2-methyl-1H-pyrrolo[3,2-b]pyridine-3-carboxamide], the IC50 was < 1 nM.

For the compound `Cc1[nH]c2c(-c3c(OCC4CC4)ccc4c3OCO4)ccnc2c1C(=O)N[C@H]1CC[C@@H](NC(=O)[C@H](C)O)CC1` [Example F05, 7-[5-(Cyclopropylmethoxy)-1,3-benzodioxol-4-yl]-N-(cis-4-{[(2S)-2-hydroxypropanoyl]amino}cyclohexyl)-2-methyl-1H-pyrrolo[3,2-b]pyridine-3-carboxamide], the IC50 was < 1 nM.

As to `Cc1[nH]c2c(-c3ccc(F)cc3OCC3CC3)ccnc2c1C(=O)NC1CCN(C(=O)[C@H](C)O)CC1` [Example F07, 7-[2-(Cyclopropylmethoxy)-4-fluorophenyl]-N-{1-[(2S)-2-hydroxypropanoyl]piperidin-4-yl}-2-methyl-1H-pyrrolo[3,2-b]pyridine-3-carboxamide], the IC50 is 1 to 10 nM.

`Cc1[nH]c2c(-c3ccc(F)cc3OCC3CC3)ccnc2c1C(=O)N[C@H]1CC[C@H](NC(=O)CO)CC1` [Example F08, 7-[2-(Cyclopropylmethoxy)-4-fluorophenyl]-N-{trans-4-[(hydroxyacetyl)amino]cyclohexyl}-2-methyl-1H-pyrrolo[3,2-b]pyridine-3-carboxamide]: the IC50 was 1 to 10 nM.

For the compound `Cc1[nH]c2c(-c3ccc(F)cc3OCC3CC3)ccnc2c1C(=O)N[C@H]1CC[C@H](NC(=O)[C@H](C)O)CC1` [Example F09, 7-[2-(Cyclopropylmethoxy)-4-fluorophenyl]-N-(trans-4-{[(2S)-2-hydroxypropanoyl]amino}cyclohexyl)-2-methyl-1H-pyrrolo[3,2-b]pyridine-3-carboxamide], the IC50 was < 1 nM.

On to `Cc1[nH]c2c(-c3ccc(F)cc3OCC3CC3)ccnc2c1C(=O)N[C@H]1CC[C@@H](NC(=O)CO)CC1` [Example F10, 7-[2-(Cyclopropylmethoxy)-4-fluorophenyl]-N-{cis-4-[(hydroxyacetyl)amino]cyclohexyl}-2-methyl-1H-pyrrolo[3,2-b]pyridine-3-carboxamide], for which the IC50 was 1 to 10 nM.

On to `Cc1[nH]c2c(-c3ccc(F)cc3OCC3CC3)ccnc2c1C(=O)N[C@H]1CC[C@@H](NC(=O)[C@H](C)O)CC1` [Example F11, 7-[2-(Cyclopropylmethoxy)-4-fluorophenyl]-N-(cis-4-{[(2S)-2-hydroxypropanoyl]amino}cyclohexyl)-2-methyl-1H-pyrrolo[3,2-b]pyridine-3-carboxamide], for which the IC50 was 1 to 10 nM.

As for `Cc1[nH]c2c(-c3cc(F)ccc3OCC3CC3)ccnc2c1C(=O)NC1CCN(C(=O)CO)CC1` [Example F12, 7-[2-(Cyclopropylmethoxy)-5-fluorophenyl]-N-[1-(hydroxyacetyl)piperidin-4-yl]-2-methyl-1H-pyrrolo[3,2-b]pyridine-3-carboxamide], the IC50 was 1 to 10 nM.

In the case of `Cc1[nH]c2c(-c3cc(F)ccc3OCC3CC3)ccnc2c1C(=O)NC1CCN(C(=O)[C@H](C)O)CC1` [Example F13, 7-[2-(Cyclopropylmethoxy)-5-fluorophenyl]-N-{1-[(2S)-2-hydroxypropanoyl]piperidin-4-yl}-2-methyl-1H-pyrrolo[3,2-b]pyridine-3-carboxamide], the IC50 is 1 to 10 nM.

Consider `Cc1[nH]c2c(-c3cc(F)ccc3OCC3CC3)ccnc2c1C(=O)N[C@H]1CC[C@H](NC(=O)CO)CC1` [Example F14, 7-[2-(Cyclopropylmethoxy)-5-fluorophenyl]-N-{trans-4-[(hydroxyacetyl)amino]cyclohexyl}-2-methyl-1H-pyrrolo[3,2-b]pyridine-3-carboxamide], for which the IC50 was < 1 nM.

As for `Cc1[nH]c2c(-c3cc(F)ccc3OCC3CC3)ccnc2c1C(=O)N[C@H]1CC[C@H](NC(=O)[C@H](C)O)CC1` [Example F15, 7-[2-(Cyclopropylmethoxy)-5-fluorophenyl]-N-(trans-4-{[(2S)-2-hydroxypropanoyl]amino}cyclohexyl)-2-methyl-1H-pyrrolo[3,2-b]pyridine-3-carboxamide], the IC50 is < 1 nM.

For `Cc1[nH]c2c(-c3cc(F)ccc3OCC3CC3)ccnc2c1C(=O)N[C@H]1CC[C@@H](NC(=O)CO)CC1` [Example F16, 7-[2-(Cyclopropylmethoxy)-5-fluorophenyl]-N-{cis-4-[(hydroxyacetyl)amino]cyclohexyl}-2-methyl-1H-pyrrolo[3,2-b]pyridine-3-carboxamide], the IC50 is 1 to 10 nM.

For the compound `Cc1[nH]c2c(-c3cc(F)ccc3OCC3CC3)ccnc2c1C(=O)N[C@H]1CC[C@@H](NC(=O)[C@H](C)O)CC1` [Example F17, 7-[2-(Cyclopropylmethoxy)-5-fluorophenyl]-N-(cis-4-{[abs.(2S)-2-hydroxypropanoyl]amino}cyclohexyl)-2-methyl-1H-pyrrolo[3,2-b]pyridine-3-carboxamide], the IC50 was 1 to 10 nM.

Regarding `COc1ccc(-c2ccnc3c(C(=O)NC4CCN(C(=O)CO)CC4)c(C)[nH]c23)c(OCC2CC2)c1` [Example F20, 7-[2-(Cyclopropylmethoxy)-4-methoxyphenyl]-N-[1-(hydroxyacetyl)piperidin-4-yl]-2-methyl-1H-pyrrolo[3,2-b]pyridine-3-carboxamide], the IC50 is < 1 nM.

`COc1ccc(-c2ccnc3c(C(=O)NC4CCN(C(=O)[C@H](C)O)CC4)c(C)[nH]c23)c(OCC2CC2)c1` [Example F21, 7-[2-(Cyclopropylmethoxy)-4-methoxyphenyl]-N-{1-[(2S)-2-hydroxypropanoyl]piperidin-4-yl}-2-methyl-1H-pyrrolo[3,2-b]pyridine-3-carboxamide]: the IC50 was < 1 nM.

As to `COc1ccc(-c2ccnc3c(C(=O)N[C@H]4CC[C@H](NC(=O)CO)CC4)c(C)[nH]c23)c(OCC2CC2)c1` [Example F22, 7-[2-(Cyclopropylmethoxy)-4-methoxyphenyl]-N-{trans-4-[(hydroxyacetyl)amino]cyclohexyl}-2-methyl-1H-pyrrolo[3,2-b]pyridine-3-carboxamide], the IC50 is < 1 nM.

For the compound `COc1ccc(-c2ccnc3c(C(=O)N[C@H]4CC[C@H](NC(=O)[C@H](C)O)CC4)c(C)[nH]c23)c(OCC2CC2)c1` [Example F23, 7-[2-(Cyclopropylmethoxy)-4-methoxyphenyl]-N-(trans-4-{[(2S)-2-hydroxypropanoyl]amino}cyclohexyl)-2-methyl-1H-pyrrolo[3,2-b]pyridine-3-carboxamide], the IC50 is < 1 nM.

Consider `COc1ccc(-c2ccnc3c(C(=O)N[C@H]4CC[C@@H](NC(=O)CO)CC4)c(C)[nH]c23)c(OCC2CC2)c1` [Example F24, 7-[2-(Cyclopropylmethoxy)-4-methoxyphenyl]-N-{cis-4-[(hydroxyacetyl)amino]cyclohexyl}-2-methyl-1H-pyrrolo[3,2-b]pyridine-3-carboxamide], for which the IC50 is < 1 nM.

In the case of `COc1ccc(-c2ccnc3c(C(=O)N[C@H]4CC[C@@H](NC(=O)[C@H](C)O)CC4)c(C)[nH]c23)c(OCC2CC2)c1` [Example F25, 7-[2-(Cyclopropylmethoxy)-4-methoxyphenyl]-N-(cis-4-{[(2S)-2-hydroxypropanoyl]amino}cyclohexyl)-2-methyl-1H-pyrrolo[3,2-b]pyridine-3-carboxamide], the IC50 was < 1 nM.

Regarding `COc1ccc(OCC2CC2)c(-c2ccnc3c(C(=O)NC4CCN(C(=O)CO)CC4)c(C)[nH]c23)c1` [Example F26, 7-[2-(Cyclopropylmethoxy)-5-methoxyphenyl]-N-[1-(hydroxyacetyl)piperidin-4-yl]-2-methyl-1H-pyrrolo[3,2-b]pyridine-3-carboxamide], the IC50 is 1 to 10 nM.

As for `COc1ccc(OCC2CC2)c(-c2ccnc3c(C(=O)NC4CCN(C(=O)[C@H](C)O)CC4)c(C)[nH]c23)c1` [Example F27, 7-[2-(Cyclopropylmethoxy)-5-methoxyphenyl]-N-{1-[(2S)-2-hydroxypropanoyl]piperidin-4-yl}-2-methyl-1H-pyrrolo[3,2-b]pyridine-3-carboxamide], the IC50 is < 1 nM.

On to `COc1ccc(OCC2CC2)c(-c2ccnc3c(C(=O)N[C@H]4CC[C@H](NC(=O)CO)CC4)c(C)[nH]c23)c1` [Example F28, 7-[2-(Cyclopropylmethoxy)-5-methoxyphenyl]-N-{trans-4-[(hydroxyacetyl)amino]cyclohexyl}-2-methyl-1H-pyrrolo[3,2-b]pyridine-3-carboxamide], for which the IC50 is < 1 nM.

With `COc1ccc(OCC2CC2)c(-c2ccnc3c(C(=O)N[C@H]4CC[C@H](NC(=O)[C@H](C)O)CC4)c(C)[nH]c23)c1` [Example F29, 7-[2-(Cyclopropylmethoxy)-5-methoxyphenyl]-N-(trans-4-{[abs.(2S)-2-hydroxypropanoyl]amino}cyclohexyl)-2-methyl-1H-pyrrolo[3,2-b]pyridine-3-carboxamide], the IC50 was < 1 nM.

Turning to `COc1ccc(OCC2CC2)c(-c2ccnc3c(C(=O)N[C@H]4CC[C@@H](NC(=O)CO)CC4)c(C)[nH]c23)c1` [Example F30, 7-[2-(Cyclopropylmethoxy)-5-methoxyphenyl]-N-{cis-4-[(hydroxyacetyl)amino]cyclohexyl}-2-methyl-1H-pyrrolo[3,2-b]pyridine-3-carboxamide], the IC50 was < 1 nM.

In the case of `COc1ccc(OCC2CC2)c(-c2ccnc3c(C(=O)N[C@H]4CC[C@@H](NC(=O)[C@H](C)O)CC4)c(C)[nH]c23)c1` [Example F31, 7-[2-(Cyclopropylmethoxy)-5-methoxyphenyl]-N-(cis-4-{[(2S)-2-hydroxypropanoyl]amino}cyclohexyl)-2-methyl-1H-pyrrolo[3,2-b]pyridine-3-carboxamide], the IC50 was < 1 nM.

For the compound `Cc1ccc(OCC2CC2)c(-c2ccnc3c(C(=O)NC4CCN(C(=O)CO)CC4)c(C)[nH]c23)c1` [Example F34, 7-[2-(Cyclopropylmethoxy)-5-methylphenyl]-N-[1-(hydroxyacetyl)piperidin-4-yl]-2-methyl-1H-pyrrolo[3,2-b]pyridine-3-carboxamide], the IC50 is 1 to 10 nM.
